Experimental data reported in paper PMC10909431 (Journal of Peptide Science, 2023).
Where two headings read alike, the source gives them in different places. Numbered stars: 1 amine (or outer) side, 2 acyl side, 3 side chain; on linkers, the order of the positions; unused ones are H or OH. Bridge positions count the residues as written; N and C are the ends. Square brackets hold non-standard residues; d marks the D form. Triazole bridges read from a SMILES are 1,4-linked. Ends that are not written are not given here. Peptide text beside a SMILES is read from it. Orn(N3) = [N-]=[N+]=NCCC[C@H](N)C(=O)O; S5 = C=CCCC[C@](C)(N)C(=O)O; X1 = c1c(C[*:2])nnn1CC[*:1]; Pra = C#CC[C@H](N)C(=O)O

Columns and labels:
IR‐A = molecular target: T1, IR‐A (Homo sapiens, UniProt P06213); assay: Receptor-binding: competition with [125I]-monoiodotyrosyl-TyrA14-insulin for IR-A in IM-9 cell membranes; details: cell membranes of human IM-9 lymphocytes, each curve in duplicate, Kd from at least three binding curves, ± S.D., SD
T1 construct: for IR‐A in cell membranes of human IM‐9 lymphocytes (ATCC); host or cells: human IM-9 lymphocytes (cell membranes)
Experimental: The binding curve of each analog was determined in duplicate, and the final dissociation constant (K d) was calculated from at least three binding curves.

IR [1] = details: cited from earlier work; for agonistic or antagonistic activities: peptides tested separately
IR [2] = details: cited from earlier work
Description: Scientific teams from Novo Nordisk A/S and Antyra, Inc., used the technique of expressing libraries of peptide sequences on the surface of bacteriophage and, by testing their binding affinities, discovered a number of peptides that bound very efficiently to IR while activating or inhibiting it.[19], [20]

[3] = test system: insulin‐stimulated lipogenesis in cells; details: cited from earlier work
Description: (§1) Scientific teams from Novo Nordisk A/S and Antyra, Inc., used the technique of expressing libraries of peptide sequences on the surface of bacteriophage and, by testing their binding affinities, discovered a number of peptides that bound very efficiently to IR while activating or inhibiting it.[19], [20] […] One of these peptides was […] or S592, which bound only to bindi ...

[4] = test system: insulin effect on plasma glucose; details: cited from earlier work
Description: as §1

T1 sequence (P06213 28-1370 isoform P06213-2 limits assumed): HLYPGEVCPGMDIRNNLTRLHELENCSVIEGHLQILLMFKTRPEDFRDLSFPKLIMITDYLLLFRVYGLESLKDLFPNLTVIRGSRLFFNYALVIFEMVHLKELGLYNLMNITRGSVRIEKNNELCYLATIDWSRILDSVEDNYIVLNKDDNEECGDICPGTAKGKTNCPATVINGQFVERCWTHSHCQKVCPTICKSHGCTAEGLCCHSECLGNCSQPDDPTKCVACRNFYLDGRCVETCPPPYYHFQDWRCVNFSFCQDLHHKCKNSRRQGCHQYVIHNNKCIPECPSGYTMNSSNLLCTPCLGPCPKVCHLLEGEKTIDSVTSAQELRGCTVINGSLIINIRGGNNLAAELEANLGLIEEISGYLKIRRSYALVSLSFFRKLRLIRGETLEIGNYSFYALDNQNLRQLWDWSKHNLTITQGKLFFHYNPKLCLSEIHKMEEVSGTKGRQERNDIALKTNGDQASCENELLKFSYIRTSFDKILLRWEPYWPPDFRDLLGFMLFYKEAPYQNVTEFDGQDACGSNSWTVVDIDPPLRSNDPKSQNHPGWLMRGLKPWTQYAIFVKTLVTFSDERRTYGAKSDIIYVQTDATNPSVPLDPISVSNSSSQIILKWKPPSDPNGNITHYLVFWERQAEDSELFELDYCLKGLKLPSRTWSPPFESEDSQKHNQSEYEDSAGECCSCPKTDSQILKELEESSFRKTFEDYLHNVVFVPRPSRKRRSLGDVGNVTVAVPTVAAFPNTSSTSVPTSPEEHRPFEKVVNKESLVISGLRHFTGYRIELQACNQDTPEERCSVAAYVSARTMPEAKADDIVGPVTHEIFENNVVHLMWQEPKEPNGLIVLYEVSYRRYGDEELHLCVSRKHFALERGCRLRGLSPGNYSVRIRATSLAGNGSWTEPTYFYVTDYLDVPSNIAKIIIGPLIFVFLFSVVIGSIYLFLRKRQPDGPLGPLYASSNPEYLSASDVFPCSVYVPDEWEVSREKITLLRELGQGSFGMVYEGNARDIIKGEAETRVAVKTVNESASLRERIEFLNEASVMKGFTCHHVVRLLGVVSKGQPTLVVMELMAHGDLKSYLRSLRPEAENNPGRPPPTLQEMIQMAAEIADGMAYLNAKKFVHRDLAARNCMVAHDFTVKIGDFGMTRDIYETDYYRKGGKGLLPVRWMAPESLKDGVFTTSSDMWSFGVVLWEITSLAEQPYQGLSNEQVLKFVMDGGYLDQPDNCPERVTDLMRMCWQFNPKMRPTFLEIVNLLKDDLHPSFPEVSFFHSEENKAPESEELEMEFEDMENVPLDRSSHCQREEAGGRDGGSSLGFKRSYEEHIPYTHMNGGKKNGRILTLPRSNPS
T1 sequence (P06213 763-1382 partner limits assumed): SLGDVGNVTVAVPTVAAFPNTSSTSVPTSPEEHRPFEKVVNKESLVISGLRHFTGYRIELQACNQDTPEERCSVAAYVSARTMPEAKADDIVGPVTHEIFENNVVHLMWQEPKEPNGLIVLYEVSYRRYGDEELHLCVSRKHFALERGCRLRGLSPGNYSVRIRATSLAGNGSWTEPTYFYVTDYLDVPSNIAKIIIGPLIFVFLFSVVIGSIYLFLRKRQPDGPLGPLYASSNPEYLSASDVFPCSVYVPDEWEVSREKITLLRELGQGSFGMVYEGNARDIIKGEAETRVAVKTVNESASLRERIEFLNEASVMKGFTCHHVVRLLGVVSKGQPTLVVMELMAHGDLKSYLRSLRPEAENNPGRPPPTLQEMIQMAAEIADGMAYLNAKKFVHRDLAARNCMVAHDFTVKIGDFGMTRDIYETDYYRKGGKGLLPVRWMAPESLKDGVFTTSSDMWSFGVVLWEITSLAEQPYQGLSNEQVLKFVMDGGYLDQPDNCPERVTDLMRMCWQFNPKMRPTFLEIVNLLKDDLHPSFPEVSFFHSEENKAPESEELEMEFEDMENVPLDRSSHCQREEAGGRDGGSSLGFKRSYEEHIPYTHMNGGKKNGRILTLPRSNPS

Compound: CC[C@H](C)[C@H](NC(=O)[C@H](CCC(N)=O)NC(=O)[C@H](C)NC(=O)[C@H](Cc1c[nH]c2ccccc12)NC(=O)[C@H](CCC(=O)O)NC(=O)[C@H](CCC(=O)O)NC(=O)[C@H](CCC(=O)O)NC(=O)[C@H](CC(C)C)NC(=O)[C@@H](N)CO)C(=O)N[C@@H](CCC(=O)O)C(=O)N[C@H]1CSSC[C@@H](C(=O)N2CCC[C@H]2C(=O)N[C@@H](CO)C(N)=O)NC(=O)CNC(=O)[C@H](CCCNC(=N)N)NC(=O)CNC(=O)[C@H](Cc2c[nH]c3ccccc23)NC(=O)[C@H](C(C)C)NC(=O)[C@H](CCC(=O)O)NC1=O [peptide 1] (H-SLEEEWAQIECEVWGRGCPS-NH2; disulfide 11-18)
- Kd (IR‐A): 3.9 ± 1 nM

Compound: GSLDESFYDWFERQLGGGSGGSSLEEEWAQIQSEVWGRGSPSY-NH2 [Cys → Ser in S661, S661 variant with cysteines mutated to serines, without the disulfide bridge]
- change of antagonistic activity versus S661 (IR [1]; inhibition of insulin-stimulated IR phosphorylation in cells): eightfold decrease

Compound: GSLDESFYDWFERQLGGGSGGSSLEEEWAQIQ C EVWGRG C PSY‐amide (disulfide) [S661, Site 1–linker–Site 2 fusion peptide with amidated C-terminus, IR antagonist]
- binding affinities for IR (IR [2]): native insulin‐like binding affinities
- inhibition of insulin‐stimulated lipogenesis in cells [3]: fully inhibit
- inhibition of the insulin effect on plasma glucose in mice [4]: fully inhibit

Compound: CC[C@H](C)[C@H](NC(=O)[C@H](CCC(N)=O)NC(=O)[C@H](C)NC(=O)[C@H](Cc1c[nH]c2ccccc12)NC(=O)[C@H](CCC(=O)O)NC(=O)[C@H](CCC(=O)O)NC(=O)[C@H](CCC(=O)O)NC(=O)[C@H](CC(C)C)NC(=O)[C@@H](N)CO)C(=O)N[C@@H](CCC(=O)O)C(=O)N[C@H]1CCCn2cc(nn2)C[C@@H](C(=O)N2CCC[C@H]2C(=O)N[C@@H](CO)C(N)=O)NC(=O)CNC(=O)[C@H](CCCNC(=N)N)NC(=O)CNC(=O)[C@H](Cc2c[nH]c3ccccc23)NC(=O)[C@H](C(C)C)NC(=O)[C@H](CCC(=O)O)NC1=O [peptide 3] (H-SLEEEWAQIE[Orn(N3)]EVWGRG[Pra]PS-NH2; triazole 11-18)
- Kd (IR‐A): 15 ± 3 nM

Compound: CC[C@H](C)[C@H](NC(=O)[C@H](CCC(N)=O)NC(=O)[C@H](C)NC(=O)[C@H](Cc1c[nH]c2ccccc12)NC(=O)[C@H](CCC(=O)O)NC(=O)[C@H](CCC(=O)O)NC(=O)[C@H](CCC(=O)O)NC(=O)[C@H](CC(C)C)NC(=O)[C@@H](N)CO)C(=O)N[C@@H](CCC(=O)O)C(=O)N[C@H]1CSCCn2cc(nn2)COC[C@@H](C(=O)N2CCC[C@H]2C(=O)N[C@@H](CO)C(N)=O)NC(=O)CNC(=O)[C@H](CCCNC(=N)N)NC(=O)CNC(=O)[C@H](Cc2c[nH]c3ccccc23)NC(=O)[C@H](C(C)C)NC(=O)[C@H](CCC(=O)O)NC1=O [peptide 5] (H-SLEEEWAQIECEVWGRGSPS-NH2; linker 11-18 via X1)
- Kd (IR‐A): 75 ± 29 nM

Compound: GSLDESFYDWFERQLGKK [S371]
- agonistic or antagonistic activities (IR [1]): did not detect any agonistic or antagonistic activities

Compound: SLEEEWAQIE C EVWGRG C PSY (disulfide) [S592]
- activation of the receptor (IR [2]): does not activate the receptor
- Kd (IR [2]; read-out: K d for binding to the IR): 1.7 nM

Compound: SLEEEWAQVE C EVYGRG C PSGSLDESFYDWFERQLG (disulfide) [S519, Site 2–Site 1 fusion peptide, IR agonist]
- agonism / antagonism of IR (IR [2]): did not show antagonistic effects and instead agonized IR
- binding to IR (IR [2]): very high affinity

Compound: #SLEEEWAQIE C EVYGR C PPSES‐amide (disulfide) [IM172N22, peptide representing the Site 2 part of IM459]
- Kd (IR [2]; read-out: binding affinity): 3.1 nM

Compound: GSLDESFYDWFERQLGGGSGGSSLEEEWAQIQ C EVWGRG C PSY (disulfide) [S961, Site 1–linker–Site 2 fusion peptide with free C-terminus, IR antagonist]
- binding affinities for IR (IR [2]): native insulin‐like binding affinities
- inhibition of insulin‐stimulated lipogenesis in cells [3]: fully inhibit
- inhibition of the insulin effect on plasma glucose in mice [4]: fully inhibit

Compound: CC[C@H](C)[C@H](NC(=O)[C@H](CCC(N)=O)NC(=O)[C@H](C)NC(=O)[C@H](Cc1c[nH]c2ccccc12)NC(=O)[C@H](CCC(=O)O)NC(=O)[C@H](CCC(=O)O)NC(=O)[C@H](CCC(=O)O)NC(=O)[C@H](CC(C)C)NC(=O)[C@@H](N)CO)C(=O)N[C@@H](CCC(=O)O)C(=O)N[C@@]1(C)CCCC=CCCC[C@@](C)(C(=O)N2CCC[C@H]2C(=O)N[C@@H](CO)C(N)=O)NC(=O)CNC(=O)[C@H](CCCNC(=N)N)NC(=O)CNC(=O)[C@H](Cc2c[nH]c3ccccc23)NC(=O)[C@H](C(C)C)NC(=O)[C@H](CCC(=O)O)NC1=O [peptide 2] (H-SLEEEWAQIE[S5]EVWGRG[S5]PS-NH2; staple 11-18)
- Kd (IR‐A): 49 ± 6 nM

Compound: CC[C@H](C)[C@H](NC(=O)[C@H](CCC(N)=O)NC(=O)[C@H](C)NC(=O)[C@H](Cc1c[nH]c2ccccc12)NC(=O)[C@H](CCC(=O)O)NC(=O)[C@H](CCC(=O)O)NC(=O)[C@H](CCC(=O)O)NC(=O)[C@H](CC(C)C)NC(=O)[C@@H](N)CO)C(=O)N[C@@H](CCC(=O)O)C(=O)N[C@H]1CSCCn2cc(nn2)CSC[C@@H](C(=O)N2CCC[C@H]2C(=O)N[C@@H](CO)C(N)=O)NC(=O)CNC(=O)[C@H](CCCNC(=N)N)NC(=O)CNC(=O)[C@H](Cc2c[nH]c3ccccc23)NC(=O)[C@H](C(C)C)NC(=O)[C@H](CCC(=O)O)NC1=O [peptide 4] (H-SLEEEWAQIECEVWGRGCPS-NH2; linker 11-18 via X1)
- Kd (IR‐A): 25 ± 7 nM

Compound: SLEEEWAQ-NH2 [N-terminal segment peptide of the Site 2 mimetics, without the cyclized part]
- Kd (IR [2]; read-out: binding affinity): 900 nM

Compound: #SLEQEWaKIE C EVYGK C PPKKAyKWFERQLK‐amide (disulfide) [IM459, variant of S519 with several modifications, IR agonist]
- ability to activate IR (IR [2]): retains the ability to activate IR (agonist)

Compound: SLEEEWAQIQSEVWGRGSPSYC [Cys → Ser in S592, Site 2 peptide with Cys-to-Ser mutations produced by Brandt et al]
- insulin signal remaining (IR [1]; 1 nM insulin, peptide at the concentration 100 nM): 50–60%
- agonistic or antagonistic activities (IR [1]): did not detect any agonistic or antagonistic activities
